A word on the AC50: it is the midpoint of the concentration-response curve, whichever way the signal moves. Low values mean activity at low concentration, high ones activity only at high concentration.

Each structure is given as a SMILES string.

This assay relates to TFEB. The experiment in a line: TFEB nuclear translocation assay, HeLa wt cells. Type of assay: cell-based. The following applies: Homo sapiens, HeLa, 2 h, 2 hrs compound treatment, Table 1 does not say HeLa wt or TRPML1 KO. In outline:
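AC50 derived from the ratio of nuclear to perinuclear ring (−5 μm) anti-TFEB immunofluorescence, imaged at ×20 over four fields per well. HeLa wt or TRPML1 KO cells were exposed to compounds for 2 hrs at 37° C, then PFA-fixed and counterstained with Hoechst.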
Compound `O=S(=O)(Nc1ccccc1N1CCC(c2ccc(Cl)cc2F)CC1)c1cccc(F)c1` [Compound A-78, N-{2-[4-(4-chloro-2-fluorophenyl)piperidin-1-yl]phenyl}-3-fluorobenzene-1-sulfonamide] showed an AC50 not below 10 µM. The figure for `O=S(=O)(Nc1ccccc1N1CCC(c2ccc(Cl)cc2F)CC1)c1ccccc1F` [Compound A-79, N-{2-[4-(4-chloro-2-fluorophenyl)piperidin-1-yl]phenyl}-2-fluorobenzene-1-sulfonamide] is not below 10 µM; for `O=S(=O)(Nc1ccccc1N1CCC(c2ccc(Cl)cc2F)CC1)c1ccc(F)c(F)c1` [Compound A-80, N-{2-[4-(4-chloro-2-fluorophenyl)piperidin-1-yl]phenyl}-3,4-difluorobenzene-1-sulfonamide] it is 2.01 to 8 µM. `O=S(=O)(Nc1ccccc1N1CCC(c2ccc(Cl)cc2F)CC1)c1c(F)cccc1F` [Compound A-81, N-{2-[4-(4-chloro-2-fluorophenyl)piperidin-1-yl]phenyl}-2,6-difluorobenzene-1-sulfonamide] returned a concentration at half-maximal activity (AC50) not below 10 µM. `O=S(=O)(Nc1ccccc1N1CCC(c2ccc(Cl)cc2F)CC1)c1cc(F)ccc1F` [Compound A-82, N-{2-[4-(4-chloro-2-fluorophenyl)piperidin-1-yl]phenyl}-2,5-difluorobenzene-1-sulfonamide] displayed an AC50 not below 10 µM.

Turning to `O=S(=O)(Nc1ccccc1N1CCC(c2ccc(Cl)cc2F)CC1)c1ccc(C(F)(F)F)cc1` [Compound A-83, N-{2-[4-(4-chloro-2-fluorophenyl)piperidin-1-yl]phenyl}-4-(trifluoromethyl)benzene-1-sulfonamide], the concentration at half-maximal activity (AC50) is not above 2 µM. For `CN(C)S(=O)(=O)c1ccc(S(=O)(=O)Nc2nc(C3CCN(c4ccc(Cl)cc4F)CC3)cn2C)cc1` [Compound A-84, N4-{4-[1-(4-chloro-2-fluorophenyl)piperidin-4-yl]-1-methyl-1H-imidazol-2-yl}-N1,N1-dimethylbenzene-1,4-disulfonamide] the value was not below 10 µM. For `O=C1c2ccccc2S(=O)(=O)N1c1ccccc1N1CCC(c2ccc(Cl)cc2F)CC1` [Compound A-85, 2-{2-[4-(4-chloro-2-fluorophenyl)piperidin-1-yl]phenyl}-2,3-dihydro-1λ^6,2-benzothiazole-1,1,3-trione] the value was not below 10 µM.

Regarding `CN(C)S(=O)(=O)c1ccc(S(=O)(=O)N2CCN(C3CCN(c4ccc(Cl)cc4F)CC3)C2=O)cc1` [Compound A-86, 4-((3-(1-(4-chloro-2-fluorophenyl)piperidin-4-yl)-2-oxoimidazolidin-1-yl)sulfonyl)-N,N-dimethylbenzenesulfonamide], the AC50 is not below 10 µM. Compound `O=S(=O)(Nc1ccccc1N1CCC(c2ccc(Cl)cc2F)CC1)c1ccc(F)cc1F` [Compound A-87, N-{2-[4-(4-chloro-2-fluorophenyl)piperidin-1-yl]phenyl}-2,4-difluorobenzene-1-sulfonamide] showed a half-maximal activity concentration (AC50) not below 10 µM. For `Cc1ccc(S(=O)(=O)Nc2ccccc2N2CC=C(c3ccc(Cl)cn3)CC2)cc1` [Compound A-88, N-(2-{5-chloro-1′,2′,3′,6′-tetrahydro-[2,4′-bipyridin]-1′-yl}phenyl)-4-methylbenzene-1-sulfonamide] the value was 2.01 to 8 µM; for `Cc1nc(N2CCN(c3ccc(Cl)cc3F)CC2=O)cn1S(=O)(=O)c1ccc(S(=O)(=O)N(C)C)cc1` [Compound A-89, 4-((4-(4-(4-chloro-2-fluorophenyl)-2-oxopiperazin-1-yl)-2-methyl-1H-imidazol-1-yl)sulfonyl)-N,N-dimethylbenzenesulfonamide], not above 2 µM.

`O=S(=O)(Nc1ccccc1N1CCC(c2ccc(Cl)cc2F)CC1)c1cc(F)cc(F)c1` [Compound A-91, N-{2-[4-(4-chloro-2-fluorophenyl)piperidin-1-yl]phenyl}-3,5-difluorobenzene-1-sulfonamide] registered an AC50 not below 10 µM. For the compound `Cc1ccc(S(=O)(=O)Nc2ccccc2N2CCC(c3ccccn3)CC2)cc1` [Compound A-92, 4-methyl-N-{2-[4-(pyridin-2-yl)piperidin-1-yl]phenyl}benzene-1-sulfonamide], the AC50 was not above 2 µM. Regarding `Cc1ccc(S(=O)(=O)Nc2ccccc2-n2ccc(-c3ccc(Cl)cc3F)c2)cc1` [Compound A-93, N-{2-[3-(4-chloro-2-fluorophenyl)-1H-pyrrol-1-yl]phenyl}-4-methylbenzene-1-sulfonamide], the half-maximal activity concentration (AC50) is not below 10 µM. For `O=S1(=O)c2ccccc2CN1c1ccccc1N1CCC(c2ccc(Cl)cc2F)CC1` [Compound A-94, 2-{2-[4-(4-chloro-2-fluorophenyl)piperidin-1-yl]phenyl}-2,3-dihydro-1λ^6,2-benzothiazole-1,1-dione] the value was 2.01 to 8 µM. The compound `CN(C)S(=O)(=O)c1ccc(S(=O)(=O)n2ccc(C3CCN(c4ncc(Cl)cc4F)CC3)n2)cc1` [Compound A-96, 4-((3-(1-(5-chloro-3-fluoropyridin-2-yl)piperidin-4-yl)-1H-pyrazol-1-yl)sulfonyl)-N,N-dimethylbenzenesulfonamide] came in with an AC50 not below 10 µM. The compound `O=S(=O)(Nc1ccccc1N1CCC(c2ccc(Cl)cc2F)CC1)c1cccc(F)c1F` [Compound A-97, N-{2-[4-(4-chloro-2-fluorophenyl)piperidin-1-yl]phenyl}-2,3-difluorobenzene-1-sulfonamide] returned an AC50 not below 10 µM. For the compound `CS(=O)(=O)c1ccc(S(=O)(=O)Nc2ccccc2N2CCC(c3ccc(Cl)cc3F)CC2)cc1` [Compound A-98, N-{2-[4-(4-chloro-2-fluorophenyl)piperidin-1-yl]phenyl}-4-methanesulfonylbenzene-1-sulfonamide], the AC50 is not above 2 µM.

The compound `COc1ccc(S(=O)(=O)Nc2ccccc2N2CCC(c3ccc(Cl)cc3F)CC2)cc1` [Compound A-99, N-{2-[4-(4-chloro-2-fluorophenyl)piperidin-1-yl]phenyl}-4-methoxybenzene-1-sulfonamide] had an AC50 not above 2 µM. In turn, `CS(=O)(=O)c1ccc(S(=O)(=O)Nc2ccccc2N2CCC(c3ccc(F)cc3F)CC2)cc1` [Compound A-100, N-{2-[4-(2,4-difluorophenyl)piperidin-1-yl]phenyl}-4-methanesulfonylbenzene-1-sulfonamide] gave a half-maximal activity concentration (AC50) not above 2 µM. For `N#Cc1ccc(S(=O)(=O)Nc2ccccc2N2CCC(c3ccc(Cl)cc3F)CC2)cc1` [Compound A-101, N-{2-[4-(4-chloro-2-fluorophenyl)piperidin-1-yl]phenyl}-4-cyanobenzene-1-sulfonamide] the value was 2.01 to 8 µM. For `Cc1ccc(S(=O)(=O)Nc2ccccc2N2CCC(c3ccc(Cl)cc3F)C2)cc1` (stereo not shown) [Compound A-102, N-{2-[3-(4-chloro-2-fluorophenyl)pyrrolidin-1-yl]phenyl}-4-methylbenzene-1-sulfonamide] the value was 2.01 to 8 µM; for `Cc1ccc(S(=O)(=O)Nc2ccccc2N2CCC(c3ccc(Cl)cn3)CC2)cc1` [Compound A-103, N-{2-[4-(5-chloropyridin-2-yl)piperidin-1-yl]phenyl}-4-methylbenzene-1-sulfonamide], not above 2 µM. For `CN(C)S(=O)(=O)c1ccc(S(=O)(=O)N(C)c2ccccc2N2CCC(c3ccc(Cl)cc3F)CC2)cc1` [Compound A-104, N1-{2-[4-(4-chloro-2-fluorophenyl)piperidin-1-yl]phenyl}-N1,N4,N4-trimethylbenzene-1,4-disulfonamide] the value was not above 2 µM; for `Cc1noc(NS(=O)(=O)c2ccc(S(=O)(=O)N(C)C)cc2)c1C1CCN(c2ccc(Cl)cc2F)CC1` [Compound A-105, N4-{4-[1-(4-chloro-2-fluorophenyl)piperidin-4-yl]-3-methyl-1,2-oxazol-5-yl}-N1,N1-dimethylbenzene-1,4-disulfonamide], not below 10 µM. Regarding `O=S(=O)(Nc1ccccc1N1CCC(c2ccc(Cl)cc2F)CC1)c1ccccc1CO` [Compound A-106, N-{2-[4-(4-chloro-2-fluorophenyl)piperidin-1-yl]phenyl}-2-(hydroxymethyl)benzene-1-sulfonamide], the AC50 was not below 10 µM. `Cc1ccc(S(=O)(=O)N(C)c2ccccc2N2CCC(c3ccc(Cl)cc3F)CC2)cc1` [Compound A-107, N-{2-[4-(4-chloro-2-fluorophenyl)piperidin-1-yl]phenyl}-N,4-dimethylbenzene-1-sulfonamide] returned an AC50 not below 10 µM. The figure for `CN(C)S(=O)(=O)c1ccc(NS(=O)(=O)c2ccccc2N2CCC(c3ccc(Cl)cc3F)CC2)cc1` [Compound A-108, 4-((2-(4-(4-chloro-2-fluorophenyl)piperidin-1-yl)phenyl)sulfonamido)-N,N-dimethylbenzenesulfonamide] is not above 2 µM; for `CN(C)S(=O)(=O)c1ccc(S(=O)(=O)Nc2cccnc2N2CCC(c3ccc(Cl)cc3F)CC2)cc1` [Compound A-109, N4-{2-[4-(4-chloro-2-fluorophenyl)piperidin-1-yl]pyridin-3-yl}-N1,N1-dimethylbenzene-1,4-disulfonamide] it is not above 2 µM.

For `COc1ccc(S(=O)(=O)Nc2cccnc2N2CCN(c3ncc(Cl)cc3F)CC2)cc1` [Compound A-110, N-{2-[4-(5-chloro-3-fluoropyridin-2-yl)piperazin-1-yl]pyridin-3-yl}-4-methoxybenzene-1-sulfonamide], the half-maximal activity concentration (AC50) is not below 10 µM. The figure for `Cc1ccc(NS(=O)(=O)c2ccccc2N2CCC(c3ccc(Cl)cc3F)CC2)cc1` [Compound A-111, 2-(4-(4-chloro-2-fluorophenyl)piperidin-1-yl)-N-(p-tolyl)benzenesulfonamide] is not below 10 µM.

As to `CN(C)S(=N)(=O)c1ccc(S(=O)(=O)Nc2ccccc2N2CCC(c3ccc(Cl)cc3F)CC2)cc1` (stereo not shown) [Compound A-112, 4-({2-[4-(4-chloro-2-fluorophenyl)piperidin-1-yl]phenyl}sulfamoyl)-N,N-dimethylbenzene-1-sulfonoimidamide], the half-maximal activity concentration (AC50) is not above 2 µM. `O=S(=O)(Nc1cccc(N2CCC(c3ccc(Cl)cc3F)CC2)c1)c1ccccc1F` [Compound A-114, N-{3-[4-(4-chloro-2-fluorophenyl)piperidin-1-yl]phenyl}-2-fluorobenzene-1-sulfonamide] gave a half-maximal activity concentration (AC50) not below 10 µM.

Source of the values: patent US20230104936A1, “TRPML MODULATORS” (Casma Therapeutics, Inc., priority 2019, published 2023).
